For orientation: logP means the decadic logarithm of the partition coefficient of the neutral form, usually between octanol and water. Read a high logP as higher lipophilicity.

Here are results for three compounds from US20110319329A1, “USE OF SO[…] IN CLUSTER HEADACHE” (priority 2007, published 2011).

The conditions of data set [1]: cited from earlier work.
Data set [2] in a line: partition coefficient (lipophilicity).

Read-outs that look alike come from different tables or passages of the source. Numbered stars: 1 amine (or outer) side, 2 acyl side, 3 side chain; on linkers, the order of the positions; unused ones are H or OH. Square brackets hold non-standard residues; d marks the D form. Side chains are listed from the residue outwards. Peptide text beside a SMILES is read from it. * marks the point of attachment. Ethylenediamine = C(CN[*:2])N[*:1]; Hyp = O=C(O)[C@@H]1C[C@@H](O)CN1; Phg = N[C@H](C(=O)O)c1ccccc1; CO = O=C([*:1])[*:2]; Bn = c1ccc(C*)cc1

On to `C[C@@H](O)[C@@H]1NC(=O)[C@H](CCCCN)NC(=O)[C@@H](Cc2c[nH]c3ccccc23)NC(=O)[C@H](Cc2ccccc2)NC(=O)[C@@H](NC(=O)[C@H](N)Cc2ccccc2)CSSC[C@@H](C(=O)N[C@H](CO)[C@@H](C)O)NC1=O` [octreotide], for which the half-life entry in data set [1] (octapeptide analog, can be given subcutaneously) is recorded as “approximately 1.5 hours”. In data set [2], this compound returned a logP of 5.5. In data set [2], `NCCCC[C@@H]1NC(=O)[C@@H](Cc2c[nH]c3ccccc23)NC(=O)[C@H](c2ccccc2)NC(=O)[C@@H]2C[C@@H](OC(=O)NCCN)CN2C(=O)[C@H](Cc2ccccc2)NC(=O)[C@H](Cc2ccc(OCc3ccccc3)cc2)NC1=O` [pasireotide, cyclo[{4-(NH2—C2H4—NH—CO—O-)Pro}-Phg-DTrp-Lys-Tyr(4-Bzl)-Phe]] (cyclo([Hyp]([CO-Ethylenediamine])[Phg][dW]KY(Bn)F); ring closure inferred) had a logP of 2.7. On to somatostatin, for which the half-life result in data set [1] (native somatostatin, necessitates intravenous infusion) was “several minutes”.
